What was measured:
[1] = test system: RKO colon adenocarcinoma cells (RKOp27 induced); assay: Alamar Blue cell viability assay on RKOp27 cells arrested by Ponasterone A induced p27Kip1 expression (cell cycle specific mode of action); type: cell-based; conditions: Homo sapiens, cells arrested by ectopic p27Kip1 induced with 10 μM Ponasterone A, 72 hours incubation, read-out: IC50 RKO p27 induced
Procedure: To determine the cell cycle specific mode of action, subclones of RKO colon adenocarcinoma cells (RKOp27 as described by Schmidt et al. in Oncogene 19, 2423-2429; 2000) are seeded into 96 well flat bottom plates at a density of 16000 cells per well in a volume of 50 μl per well in DMEM growth medium with 10% FCS containing 10 μM Ponasterone A. 24 hours after seeding the 50 μl each of the compound dilutions in DMEM medium are added into each well of the 96-well plate. Each compound dilution is tested as quadruplicates. Wells containing untreated control cells are filled with 50 μl DMEM medium containing 1% DMSO. The cells are then incubated with the substances for 72 hours at 37° C. in a humidified atmosphere containing 5% carbon dioxide. To determine the viability of the cells, 10 μl of an Alamar Blue solution (Biosource) are added and the fluorescence is measured at an extinction of 544 nm and an emission of 590 nm. For the calculation of the cell viability the emission value from untreated cells is set as 100% viability and the emission rates of treated cells are set in relation to the values of untreated cells. Viabilities are expressed as % values. Viability is compared of proliferating cells grown in the absence of the inducer Ponasterone A, versus viability of cells arrested by the expression of ectopic p27Kip1 induced by Ponasterone A.
Representative IC50 values for anti-proliferation/cytotoxicity determined in the aforementioned assays follow from the following table A, in which the numbers of the compound correspond to the numbers of the examples.

Row | SMILES | IC50 [1] | melting point
1 | COc1cc(OC)cc([C@@H]2c3[nH]c4ccccc4c3C[C@H]3C(=O)N(C)C(=S)N23)c1 [Compound 1, (3aS,10R)-10-(3,5-Dimethoxy-phenyl)-2-methyl-1-thioxo-1,2,3a,4,9,10-hexahydro-2,9,10a-triaza-cyclopenta[b]fluoren-3-one] | > 100 µM | –
2 | COc1cc(OC)cc([C@@H]2c3[nH]c4cc(C)ccc4c3C[C@H]3C(=O)N(C)C(=S)N23)c1 (racemic) [Compound 8, (3aSR,10RS)-10-(3,5-Dimethoxy-phenyl)-2,7-dimethyl-1-thioxo-1,2,3a,4,9,10-hexahydro-2,9,10a-triaza-cyclopenta[b]fluoren-3-one] | > 100 µM | 216 to 218 °C
3 | COc1cc(OC)cc([C@@H]2c3[nH]c4cccc(C)c4c3C[C@H]3C(=O)N(C)C(=S)N23)c1 (racemic) [Compound 7, (3aSR,10RS)-10-(3,5-Dimethoxy-phenyl)-2,5-dimethyl-1-thioxo-1,2,3a,4,9,10-hexahydro-2,9,10a-triaza-cyclopenta[b]fluoren-3-one] | > 100 µM | 279 to 291 °C
4 | COc1cc(OC)cc([C@@H]2c3[nH]c4cc(F)ccc4c3C[C@H]3C(=O)N(C)C(=S)N23)c1 (racemic) [Compound 6, (3aSR,10RS)-10-(3,5-Dimethoxy-phenyl)-7-fluoro-2-methyl-1-thioxo-1,2,3a,4,9,10-hexahydro-2,9,10a-triaza-cyclopenta[b]fluoren-3-one] | > 100 µM | 199 to 202 °C
5 | CN1C(=O)[C@@H]2Cc3c([nH]c4ccccc34)[C@@H](c3cc(F)cc(F)c3)N2C1=S [Compound 4, (3aS,10R)-10-(3,5-Difluoro-phenyl)-2-methyl-1-thioxo-1,2,3a,4,9,10-hexahydro-2,9,10a-triaza-cyclopenta[b]fluoren-3-one] | > 100 µM | 308 to 310 °C

Now from value to compound:

Row | IC50 [1] | melting point | SMILES
6 | > 100 µM | 277 °C | CN1C(=O)[C@@H]2Cc3c([nH]c4ccccc34)[C@@H](c3cc(Cl)cc(Cl)c3)N2C1=S [Compound 3, (3aS,10R)-10-(3,5-Dichloro-phenyl)-2-methyl-1-thioxo-1,2,3a,4,9,10-hexahydro-2,9,10a-triaza-cyclopenta[b]fluoren-3-one]
7 | > 100 µM | 252 to 257 °C | Cc1cc(C)cc([C@@H]2c3[nH]c4ccccc4c3C[C@H]3C(=O)N(C)C(=S)N23)c1 [Compound 5, (3aS,10R)-10-(3,5-Dimethyl-phenyl)-2-methyl-1-thioxo-1,2,3a,4,9,10-hexahydro-2,9,10a-triaza-cyclopenta[b]fluoren-3-one]
8 | > 85 µM | 247 to 249 °C | COc1cc(OC)cc([C@@H]2c3sc4ccccc4c3C[C@H]3C(=O)N(C)C(=S)N23)c1 (racemic) [Compound 2, (3aSR,10RS)-10-(3,5-Dimethoxy-phenyl)-2-methyl-1-thioxo-1,2,4,10-tetrahydro-3aH-9-thia-2,10a-diaza-cyclopenta[b]fluoren-3-one]
